Source: patent US6737383B1, “Herbicidal oxadiazolidines” (priority 1999, dated 2004)

How the values were obtained:
bamyardgrass = assay: Test B flood test barnyardgrass; format: in vivo, Echinochloa crus-galli
In short: (§1)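 Each value is a visual injury score relative to controls, with 10 meaning complete control and 0 no effect. Evaluation took place twelve to sixteen days after the 2-leaf-stage plants were treated and kept in the greenhouse.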

bedstraw = assay: Test B pre/postemergence bedstraw; format: in vivo, Galium aparine
In short: (§2)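 Response is a visual 0-to-10 score relative to untreated plants, where 0 means no effect and 10 means complete control, taken twelve to sixteen days after application. Treatments went onto soil at planting and onto foliage of 1- to 4-leaf plants, using a surfactant-containing non-phytotoxic solvent.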

rice = assay: Test B flood test rice; format: in vivo, Oryza sativa
In short: as §1

wild oat = assay: Test B pre/postemergence wild oat; format: in vivo, Avena fatua; conditions: for Plant response rating, Wild oats: Postemergence
In short: as §2

velvetleaf = assay: Test B pre/postemergence velvetleaf; format: in vivo, Abutilon theophrasti; conditions: for Plant response rating, Velvetleaf: Postemergence
In short: as §2

purple nutsedge = assay: Test B pre/postemergence purple nutsedge; format: in vivo, Cyperus rotundus
In short: as §2

morningglory = assay: Test B pre/postemergence morningglory; format: in vivo, Ipomoea hederacea
In short: as §2

giant foxtail = assay: Test B pre/postemergence giant foxtail; format: in vivo, Setaria faberii
In short: as §2

surinam grass = assay: Test B pre/postemergence surinam grass; format: in vivo, Brachiaria decumbens
In short: as §2

smallflower flatsedge = assay: Test B flood test smallflower flatsedge; format: in vivo, Cyperus difformis
In short: as §1

pigweed = assay: Test B pre/postemergence pigweed; format: in vivo, Amaranthus retroflexus; conditions: for Plant response rating, Redroot pigweed: Postemergence
In short: as §2

cocklebur = assay: Test B pre/postemergence cocklebur; format: in vivo, Xanthium strumarium
In short: as §2

crabgrass = assay: Test B pre/postemergence crabgrass; format: in vivo, Digitaria sanguinalis
In short: as §2

blackgrass = assay: Test B pre/postemergence blackgrass; format: in vivo, Alopecurus myosuroides
In short: as §2

rape = assay: Test B pre/postemergence rape; format: in vivo, Brassica napus
In short: as §2

wheat = assay: Test B pre/postemergence wheat; format: in vivo, Triticum aestivum; conditions: for Plant response rating, Wheat: Postemergence
In short: as §2

corn = assay: Test B pre/postemergence corn; format: in vivo, Zea mays
In short: as §2

duck salad = assay: Test B flood test duck salad; format: in vivo, Heteranthera limosa
In short: as §1

soybean = assay: Test B pre/postemergence soybean; format: in vivo, Glycine max; conditions: for Plant response rating, Soybean: Postemergence
In short: as §2

sugar beet = assay: Test B pre/postemergence sugar beet; format: in vivo, Beta vulgaris
In short: as §2

[1] = Rate 62 g/ha, flood test species, Pre-emergence, visual evaluation after twelve to sixteen days
[2] = Rate 125 g/ha, under heading Pre-emergence, flood test species, visual evaluation after twelve to sixteen days
[3] = Rate 250 g/ha, Pre-emergence (flood test species), scale 0 to 10, 0 is no effect, 10 is complete control
[4] = Rate 500 g/ha, Pre-emergence section of Table B, 0 to 10 scale (0 no effect, 10 complete control)
[5] = Postemergence, Rate 125 g/ha, scale 0 to 10, 0 is no effect, 10 is complete control
[6] = Preemergence, Rate 62 g/ha, scale 0 to 10 (0 no effect, 10 complete control)
[7] = Preemergence, Rate 125 g/ha, scale 0 to 10, 0 is no effect, 10 is complete control
[8] = Preemergence, Rate 500 g/ha, scale of 0 to 10 where 0 is no effect and 10 is complete control
[9] = Rate 500 g/ha, scale of 0 to 10 where 0 is no effect and 10 is complete control
[10] = Rate 250 g/ha, scale of 0 to 10 where 0 is no effect and 10 is complete control
[11] = Postemergence, Rate 62 g/ha, scale of 0 to 10, 0 is no effect, 10 is complete control
[12] = Postemergence, Rate 500 g/ha, scale of 0 to 10 where 0 is no effect and 10 is complete control
[13] = Rate 250 g/ha, Postemergence, scale of 0 to 10 where 0 is no effect and 10 is complete control

## CC(C)N(C(=O)n1oc(=O)n(C[Si](C)(C)C)c1=O)c1ccccc1 [Compound 577]
bamyardgrass; [1]
  Plant response rating, Barnyardgrass (0 to 10 scale, 0 is no effect, 10 is complete control): 0
bamyardgrass; [2]
  Barnyardgrass plant response rating (0 to 10 scale, 0 is no effect, 10 is complete control): 0
bamyardgrass; [3]
  Barnyardgrass plant response rating: 0
bamyardgrass; [4]
  Barnyardgrass plant response rating: 0
bedstraw; [5]
  Bedstraw plant response rating: 4
bedstraw; [6]
  Bedstraw plant response rating: 0
bedstraw; [7]
  Bedstraw plant response rating: 0
bedstraw; Preemergence, Rate 250 g/ha
  Bedstraw plant response rating (0 to 10 scale): 0
bedstraw; [8]
  Bedstraw plant response rating: 0
rice; [1]
  Plant response rating, Rice (0 to 10 scale, 0 is no effect, 10 is complete control): 0
rice; [2]
  Rice plant response rating (0 to 10 scale, 0 is no effect, 10 is complete control): 0
rice; [3]
  Rice plant response rating: 0
rice; [4]
  Rice plant response rating: 0
Wild oat; [9]
  Plant response rating, Wild oats: 0
Wild oat; [6]
  Wild oats plant response rating: 0
Wild oat; [7]
  Wild oats plant response rating: 0
Wild oat; Preemergence, Rate 250 g/ha
  Wild oats plant response rating (0 to 10 scale): 0
Wild oat; [8]
  Wild oats plant response rating: 0
Wild oat; [10]
  Plant response rating, Wild oats: 0
velvetleaf; [9]
  Plant response rating, Velvetleaf: 0
velvetleaf; [6]
  Velvetleaf plant response rating: 4
velvetleaf; [7]
  Velvetleaf plant response rating: 3
velvetleaf; Preemergence, Rate 250 g/ha
  Velvetleaf plant response rating (0 to 10 scale): 3
velvetleaf; [8]
  Velvetleaf plant response rating: 4
velvetleaf; [10]
  Plant response rating, Velvetleaf: 0
Purple nutsedge; [11]
  Nutsedge plant response rating: 0
Purple nutsedge; [12]
  Plant response rating, Nutsedge: 0
Purple nutsedge; [6]
  Nutsedge plant response rating: 0
Purple nutsedge; [7]
  Nutsedge plant response rating: 0
Purple nutsedge; Preemergence, Rate 250 g/ha
  Nutsedge plant response rating (0 to 10 scale): 0
Purple nutsedge; [8]
  Nutsedge plant response rating: 0
morningglory; [11]
  Morningglory plant response rating: 6
morningglory; [5]
  Morningglory plant response rating: 9
morningglory; [12]
  Plant response rating, Morningglory: 10
morningglory; [6]
  Morningglory plant response rating: 0
morningglory; [7]
  Morningglory plant response rating: 0
morningglory; Preemergence, Rate 250 g/ha
  Morningglory plant response rating (0 to 10 scale): 8
morningglory; [8]
  Morningglory plant response rating: 9
morningglory; [13]
  Plant response rating, Morningglory: 10
Giant foxtail; [11]
  Giant foxtail plant response rating: 0
Giant foxtail; [5]
  Giant foxtail plant response rating: 2
Giant foxtail; [12]
  Plant response rating, Giant foxtail: 8
Giant foxtail; [6]
  Giant foxtail plant response rating: 7
Giant foxtail; [7]
  Giant foxtail plant response rating: 8
Giant foxtail; Preemergence, Rate 250 g/ha
  Giant foxtail plant response rating (0 to 10 scale): 9
Giant foxtail; [8]
  Giant foxtail plant response rating: 10
Giant foxtail; [13]
  Plant response rating, Giant foxtail: 2
Surinam grass; [11]
  B. signalgrass plant response rating: 0
Surinam grass; [5]
  B. signalgrass plant response rating: 0
Surinam grass; [12]
  Plant response rating, B. signalgrass: 3
Surinam grass; [6]
  B. signalgrass plant response rating: 0
Surinam grass; [7]
  B. signalgrass plant response rating: 3
Surinam grass; Preemergence, Rate 250 g/ha
  B. signalgrass plant response rating (0 to 10 scale, 0 is no effect, 10 is complete control): 4
Surinam grass; [8]
  B. signalgrass plant response rating: 7
Surinam grass; [13]
  Plant response rating, B. signalgrass: 0
Smallflower flatsedge; [1]
  Plant response rating, S. Flatsedge (0 to 10 scale, 0 is no effect, 10 is complete control): 0
Smallflower flatsedge; [2]
  S. Flatsedge plant response rating (0 to 10 scale, 0 is no effect, 10 is complete control): 0
Smallflower flatsedge; [3]
  S. Flatsedge plant response rating: 0
Smallflower flatsedge; [4]
  S. Flatsedge plant response rating: 0
pigweed; [9]
  Plant response rating, Redroot pigweed: 0
pigweed; [6]
  Redroot pigweed plant response rating: 0
pigweed; [7]
  Redroot pigweed plant response rating: 0
pigweed; Preemergence, Rate 250 g/ha
  Redroot pigweed plant response rating (0 to 10 scale): 0
pigweed; [8]
  Redroot pigweed plant response rating: 0
pigweed; [10]
  Plant response rating, Redroot pigweed: 0
cocklebur; [11]
  Cocklebur plant response rating: 0
cocklebur; [5]
  Cocklebur plant response rating: 0
cocklebur; [12]
  Plant response rating, Cocklebur: 2
cocklebur; [6]
  Cocklebur plant response rating: 0
cocklebur; [7]
  Cocklebur plant response rating: 0
cocklebur; Preemergence, Rate 250 g/ha
  Cocklebur plant response rating (0 to 10 scale): 0
cocklebur; [8]
  Cocklebur plant response rating: 0
cocklebur; [13]
  Plant response rating, Cocklebur: 0
crabgrass; [11]
  Crabgrass plant response rating: 0
crabgrass; [5]
  Crabgrass plant response rating: 0
crabgrass; [12]
  Plant response rating, Crabgrass: 3
crabgrass; [6]
  Crabgrass plant response rating: 7
crabgrass; [7]
  Crabgrass plant response rating: 9
crabgrass; Preemergence, Rate 250 g/ha
  Crabgrass plant response rating (0 to 10 scale): 9
crabgrass; [8]
  Crabgrass plant response rating: 10
crabgrass; [13]
  Plant response rating, Crabgrass: 3
blackgrass; [11]
  Blackgrass plant response rating: 0
blackgrass; [5]
  Blackgrass plant response rating: 0
blackgrass; [12]
  Plant response rating, Blackgrass: 0
blackgrass; [6]
  Blackgrass plant response rating: 0
blackgrass; [7]
  Blackgrass plant response rating: 0
blackgrass; Preemergence, Rate 250 g/ha
  Blackgrass plant response rating (0 to 10 scale): 3
blackgrass; [8]
  Blackgrass plant response rating: 6
blackgrass; [13]
  Plant response rating, Blackgrass: 0
rape; [11]
  Rape plant response rating: 0
rape; [5]
  Rape plant response rating: 0
rape; [12]
  Plant response rating, Rape: 0
rape; [6]
  Rape plant response rating: 0
rape; [7]
  Rape plant response rating: 0
rape; Preemergence, Rate 250 g/ha
  Rape plant response rating (0 to 10 scale): 0
rape; [8]
  Rape plant response rating: 0
rape; [13]
  Plant response rating, Rape: 0
wheat; [9]
  Plant response rating, Wheat: 0
wheat; [6]
  Wheat plant response rating: 0
wheat; [7]
  Wheat plant response rating: 0
wheat; Preemergence, Rate 250 g/ha
  Wheat plant response rating (0 to 10 scale): 0
wheat; [8]
  Wheat plant response rating: 0
wheat; [10]
  Plant response rating, Wheat: 0
corn; [11]
  Corn plant response rating: 0
corn; [5]
  Corn plant response rating: 0
corn; [12]
  Plant response rating, Corn: 2
corn; [6]
  Corn plant response rating: 2
corn; [7]
  Corn plant response rating: 2
corn; Preemergence, Rate 250 g/ha
  Corn plant response rating (0 to 10 scale): 2
corn; [8]
  Corn plant response rating: 3
corn; [13]
  Plant response rating, Corn: 0
Duck salad; [1]
  Plant response rating, Ducksalad (0 to 10 scale, 0 is no effect, 10 is complete control): 0
Duck salad; [2]
  Ducksalad plant response rating (0 to 10 scale, 0 is no effect, 10 is complete control): 0
Duck salad; [3]
  Ducksalad plant response rating: 0
Duck salad; [4]
  Ducksalad plant response rating: 0
soybean; [9]
  Plant response rating, Soybean: 5
soybean; [6]
  Soybean plant response rating: 0
soybean; [7]
  Soybean plant response rating: 0
soybean; Preemergence, Rate 250 g/ha
  Soybean plant response rating (0 to 10 scale): 0
soybean; [8]
  Soybean plant response rating: 0
soybean; [10]
  Plant response rating, Soybean: 3
Sugar beet; [6]
  Sugarbeets plant response rating: 0
Sugar beet; [7]
  Sugarbeets plant response rating: 0
Sugar beet; Preemergence, Rate 250 g/ha
  Sugarbeets plant response rating (0 to 10 scale): 0
Sugar beet; [8]
  Sugarbeets plant response rating: 0
Sugar beet; [13]
  Plant response rating, Sugarbeets: 0
